Assay results: PubChem BioAssay AID588780 (Sanford-Burnham Center for Chemical Genomics, 2011)
The source made the active and inactive calls.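 How the source made its calls: active means compounds whose fitted half-maximal concentration in the cell-protection dose series is at or below a set limit; inactive means the rest.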

tested on: H9c2 cardiomyocytes, 2-deoxyglucose stress, ATP luminescence, 2 h; assay: H9c2 cell survival under 2-deoxyglucose stress – uHTS hits, dose response (AID 588780)

Structure (SMILES)	IC50
Cn1c(-n2c(CCCN3C(=O)c4ccccc4C3=O)nc3ccccc3c2=O)nc2ccccc21	26.4 µM
CC(=O)Nc1ccc(C(=O)Nc2nc(-c3ccccn3)cs2)cc1	32.1 µM (inactive)
O=C(C(=O)N(Cc1ccccc1)Cc1ccccc1)c1c(-c2ccccc2)[nH]c2ccccc12	> 79 µM (inactive)
Cc1cc(C)n2nc(C(=O)N/N=C/c3c4ccccc4cc4ccccc34)nc2n1	> 79 µM (inactive)
O=C(CSc1nc2ccccc2c(=O)[nH]1)N1CCN(S(=O)(=O)c2ccccc2)CC1	> 79 µM (inactive)
Cc1ccccc1OCC(=O)NNC(=O)Cn1[nH]c(=O)c2ccccc2c1=O	> 79 µM (inactive)
O=C(CSc1nc2ccccc2c(=O)[nH]1)N1CCCCC1	> 79 µM (inactive)
COc1ccc(CCNC(=O)c2cc3c(C)nccc3[nH]c2=O)cc1OC	16.3 µM
Cc1cc(C)c(C)c(S(=O)(=O)N2CCN(C(=O)c3cc(=O)[nH]c4ccccc34)CC2)c1C	> 79 µM (inactive)
Cc1c(C2Nc3ccccc3C(=O)N2O)cnn1C (centres undefined)	14.6 µM
CCOc1cccc(Nc2cc3n(c(=O)n2)CCc2cc(OC)c(OC)cc2-3)c1	29.9 µM
O=c1[nH]c2ccccc2c2ccccc12	> 79 µM (inactive)
CC(C)=CCc1ccc(O)c(=O)cc1C(C)C	> 79 µM (inactive)
Cc1sc2nc(CSCC(=O)N(CCC#N)c3ccccc3F)[nH]c(=O)c2c1C	27.9 µM
CC1(C)CC2CC(C)(CN2C(=O)COC(=O)c2n[nH]c(=O)c3ccccc23)C1 (centres undefined)	> 79 µM (inactive)
Cc1nc2ccccc2c2c(N)c3ccccc3n12	26.5 µM
Cc1cc(C)n(-c2ccc3cccc(NS(C)(=O)=O)c3n2)n1	> 79 µM (inactive)
O=C(O)c1nn(CC(=O)N2CCN(c3ccccc3)CC2)c(=O)c2ccccc12	> 79 µM (inactive)
COc1cc(-c2cc(C(=O)OCC(=O)NC3CC3)c3ccccc3n2)cc(OC)c1OC	10.7 µM
CCCCN(Cc1nc2ccccc2c(=O)[nH]1)C(=O)CN1C(=O)NC2(CCCCC2)C1=O	> 79 µM (inactive)

Structure (SMILES)	IC50
CCOc1ccc(N(CC(=O)N/N=C/c2ccccn2)S(=O)(=O)c2ccc(Cl)cc2)cc1	> 79 µM (inactive)
COc1ccccc1NC(=O)c1cc(-c2ccc(OC)c(OC)c2)nc2ccccc12	> 79 µM (inactive)
N#CCCSc1ccccc1NC(=O)c1cc(=O)c2ccccc2o1	> 79 µM (inactive)
COc1cc2ccnc(C=O)c2cc1OC	> 79 µM (inactive)
Cc1ccc(C(=O)CSc2nc3ccccc3c(=O)[nH]2)cc1	> 79 µM (inactive)
COc1cc(-c2cc(C(=O)Nc3cccc(C(C)=O)c3)c3ccccc3n2)cc(OC)c1OC	> 79 µM (inactive)
O=C(NCC(=O)N(Cc1cccs1)C(C(=O)NC1CCCC1)c1ccco1)c1cccs1 (centres undefined)	13.3 µM
Cc1onc(-c2ccccc2)c1C(=O)NC(=S)NNC(=O)c1ccccc1O	37.2 µM (inactive)
Cc1cccc(N2CCN(C(=O)CCc3nc4ccccc4c(=O)[nH]3)CC2)c1C	> 79 µM (inactive)
COc1ccc(N/C=C(\C#N)c2nc3ccccc3n2C)c(OC)c1	> 79 µM (inactive)
CCN(CC)C(=O)CSc1nc2ccccc2c(=O)[nH]1	> 79 µM (inactive)
N#Cc1c(-c2ccco2)cc(-c2cccnc2)nc1N	12.1 µM
CCSc1nnc(NC(=O)C2Cc3ccccc3CN2S(=O)(=O)CC)s1 (centres undefined)	43.6 µM (inactive)
CSc1nc2ncc3c(n2n1)CC1c2ccccc2CCN1C3=O (centres undefined)	> 79 µM (inactive)
COC(=O)c1[nH]c2cc(OC)c(OC)cc2c1/C=N/Nc1ccccc1	> 79 µM (inactive)
CN(CC(=O)Nc1ccccc1Cl)C(=O)CCc1nc2ccccc2c(=O)[nH]1	38 µM (inactive)
CCc1nc2ccc(C(=O)Nc3cc(-c4ccccc4)ccc3OC)cn2c1N(C)Cc1nccs1	9.62 µM
O=C(N/N=C/c1cn(-c2ccccc2)nc1-c1cccnc1)c1cccnc1	> 79 µM (inactive)
COc1ccc(Nc2nc(Nc3ccc(OC)cc3OC)nc(N3CCN(C)CC3)n2)c(OC)c1	43.4 µM (inactive)
